In patent US12637430B2, “Interleukin-17 (IL-17) inhibitors” (priority 2020, dated 2026):
Read-outs that look alike come from different tables or passages of the source.

Legend:
[1] = biological target: T1, human IL-17A (Homo sapiens, UniProt Q16552); assay: IL-17A enzyme-linked immunosorbent assay (competitive ELISA, IL-17A/IL-17R binding)
T1 construct: purchased Sino Biological Inc. 12047-H07B
T1 sequence (Q16552 24-155): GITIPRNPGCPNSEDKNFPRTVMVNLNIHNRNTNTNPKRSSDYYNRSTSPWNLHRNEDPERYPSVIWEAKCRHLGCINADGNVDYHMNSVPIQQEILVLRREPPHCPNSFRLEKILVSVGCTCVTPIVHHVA
Protocol: The inhibition of receptor-ligand binding by human IL-17A inhibitors was quantified by competitive ELISA. 0.2 μg/mL of IL-17A (Sino Biological Inc. Cat #12047-H07B) was added in a 96-well plate at 100 μl per well for incubation for 30 min under 37° C. The 96-well plate was washed with PBST (PBS, 0.05% Tween-20) at 200 μl per well for 4 times, and then added with 200 μl of 5% skim milk and placed on a shaker for incubation at 25° C. for 30 min. The compound to be tested was prepared at 100× concentration ranging from 0.003 μM to 30 μM. After washed with PBST (PBS, 0.05% Tween-20) 4 times, the plate was added with 89 μl of PBST and 1 μl of the compound to be tested at 100× concentration followed by uniformly mixing and pre-incubation at 25° C. for 10 min. Then the plate was added with 10 μl of 16 nM IL-17R, and incubated on a shaker at 25° C. for 30 min. After washed for 4 times, the plate was added with 100 μl of anti-Fc-tag horseradish peroxidase (HRP)-conjugated antibody, and incubated on a shaker at 25° C. for 30 min. After washed 4 times, the plate was added with 100 μl of 3,3′, 5,5″-tetramethylbenzidine (TMB) substrate solution, and incubated at 25° C. in the dark. Then the plate was added with 20% HCl, followed by detection of the light absorption value at a wavelength of 450 nm by a microplate reader. The compounds prepared in the above examples were tested for human IL-17A inhibitory activity according to the above method.

[2] = biological target: T2, human IL-17A protein (Homo sapiens, UniProt Q16552); assay: Inhibition of chemokine GROα/CXCL1 generation induced by human IL-17A protein in HT-29 cell; type: cell-based
T2 construct: purchased R&D 317-ILB
T2 sequence (Q16552 20-155 limits assumed): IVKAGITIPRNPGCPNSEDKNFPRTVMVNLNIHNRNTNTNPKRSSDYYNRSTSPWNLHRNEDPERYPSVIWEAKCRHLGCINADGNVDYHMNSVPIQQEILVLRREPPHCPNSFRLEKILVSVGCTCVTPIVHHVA
Protocol: HT-29 (Zhongyuan Gongchuang Technology Co., Ltd. of Chengdu, Sichuan) was added to a 96-well plate at 5×10^4 cells/well, and cultured overnight in a incubator at 37° C. A mixture of 30 ng/mL of human IL-17A protein (R&D, #317-ILB) and IL-17A small molecule inhibitors with gradient concentrations or 0.3 μg/mL of positive control IL-17A antibody (R&D, #AF-317-NA) was incubated at 37° C. for 1 h, and then added to the above-mentioned 96-well plate, and incubated with HT-29 cells at 37° C. for 48 hours. Then the GROα level in the cell culture supernatant was detected by an ELISA kit (Cisbio, #62HCXC1PEG) of the GROα.
According to the methods described in Experimental Examples 1 and 2, the compounds prepared in the above-mentioned examples were subjected to the experiment on inhibition of chemokine GROα/CXCL1 generation induced by human IL-17A protein in HT-29 cell.

[3] = Pharmacokinetic properties in mice (intravenous injection/oral gavage); type: in vivo; settings: oral bioavailability
Protocol: (§1) In order to investigate the pharmacokinetic properties of the compound in rats, 3 rats were administered with the compounds at corresponding doses by intravenous injection/oral gavage, respectively. The anticoagulated whole blood of the rats were collected and the plasma was separated at 5 min, 15 min, 30 min, 1 h, 2 h, 4 h, 8 h, 24 h after administrated. In order to investigate the pharmacokinetic properties of the compound in mice, 6 mice were administered with the compound at the corresponding dose by intravenous injection/oral gavage. The mice administered by each route were divided into A group and B group. The anticoagulated whole blood was collected from the mice in group A at 5 min, 30 min, 2 h, and 8 h after the administration, and the anticoagulated whole blood was collected from the mice in group B at 15 min, 1 h, 4 h, and 24 h after the administration, and plasma was separated. In order to investigate the pharmacokinetic properties of dogs, two groups of 4 beagle dogs (2 males+2 females) were administered with the compound at corresponding doses by intravenous injection/oral gavage. The anticoagulated whole blood of each dog was collected, and the plasma was separated at 2 h, 4 h, 8 h, 12 h, 24 h, 36 h after the administration.
(§2) Plasma concentrations of compounds were determined by standard curve calibration by LC-MS. […]

[4] = Pharmacokinetic properties in rats (intravenous injection/oral gavage); type: in vivo; settings: oral bioavailability
Protocol: as §1, §2

[5] = Pharmacokinetic properties in dogs (intravenous injection/oral gavage); type: in vivo; settings: oral bioavailability, beagle dogs
Protocol: as §1, §2

[6] = test system: cytochrome P450 1A2 (CYP1A2); type: in vitro ADME; settings: human hepatocytes
Protocol: In order to evaluate the induction of CYP enzymes in human hepatocytes by the compounds prepared in the above examples at 10 μM, Omeprazole (positive control) and the compound prepared in Example 32 (control compound 2) disclosed in patent application. WO2020/127685A1 were used as controls.

[7] = test system: imiquimod-induced psoriasis mouse model; assay: Pharmacodynamic test on an imiquimod cream-induced psoriasis model in mice; type: in vivo, C57BL/6N mouse
Protocol: Each 10-week-old female C57 black 6 (C57BL/6N) mouse was shaved to approximately 2.5×4 cm on the back, which the imiquimod (IMQ, Imiquimod) cream continuously applies from the day 1-4, so as to establish a psoriasis model. Each mouse was administrated with the compound 51 prepared in this application by gavage (3, 10, 30 mg/kg) once a day, and administrated with IL-17A antibody solution by intraperitoneal injection (Ab, 2 mg/kg) every other day, or administrated with dexamethasone solution by intraperitoneal injection (10 mg/kg) once a day. […] On day 1 and day 5 of the experiment, the skin thickness of the mice was measured to investigate the skin thickening induced by IMQ.
On day 5 of the experiment, the skins of mice in each group were collected, the mRNA expression level of IL6 was detected by quantitative reverse transcription polymerase chain reaction (RT-qPCR) test. […] On day 5 of the experiment, the plasma of mice in each group was collected, and the IL6 protein level was measured.
On day 5 of the model, the skin samples were collected from the back of each mouse. The samples were fixed in 4% paraformaldehyde, and stained with hematoxylin-eosin (HE) to investigate the protective effect of compound 51 on skin pathological damage.

Row | SMILES | IC50 [1] [µM] | IC50 [2] [µM] | F % (Mice) [3] [%] | F % (Rats) [4] [%] | F %(Dogs) [5] [%] | Note 1A2 (CYP1A2 induction) ([6]; 10 μM) | mRNA Expression level % of the positive control 1A2 ([6]; 10 μM) [%] | mRNA Expression level Fold of induction 1A2 ([6]; 10 μM) | Note 1A2 (CYP1A2 induction) ([6]; 10 μM, listed as compound 51) | skin thickening induced by IMQ (skin thickness day 1 and day 5) ([7]; compound 51 gavage 3, 10, 30 mg/kg once a day, antibody i.p. 2 mg/kg every other day, FIG. 1B) | skin pathological damage (HE staining) ([7]; day 5, 3, 10 and 30 mg/kg, FIGS. 2A-G) | mRNA expression level of IL6 in skin (RT-qPCR) ([7]; day 5, gavage 3, 10, 30 mg/kg, FIG. 1C) | IL6 protein level in plasma ([7]; day 5, gavage 3, 10, 30 mg/kg, FIG. 1D) | AUC of the psoriasis area and severity index (PASI) scoring curve (skin inflammation) ([7]; gavage 3, 10, 30 mg/kg once a day, FIG. 1A) | mRNA Expression level Fold of induction 1A2 ([6]; concentration 25/750 μM (positive control))
1 | Cc1n[nH]c(C)c1-c1ncc(NC(=O)[C@@H](NC(=O)c2ccnn2C(C)C)C(C2CC2)C2CC2)cc1F [Compound 51] | 0.042 | 0.224 | 56 | 46 | 58 | Non- | 2.20 | 1.26 | no inducing effect | reversed the skin thickening caused by IMQ at different levels | may inhibit the infiltration and damage of skin inflammatory cells induced by IMQ at different levels | dependently reversed the up-regulation of IL6 expression level | dependently inhibited the increase of IL6 protein level in the plasma | reduced the level of skin inflammation induced by IMQ | 
2 | COc1ccc2[nH]c([S+]([O-])Cc3ncc(C)c(OC)c3C)nc2c1 (stereo not drawn) [Omeprazole, reference compound] |  |  |  |  |  |  |  |  |  |  |  |  |  |  | 12.8
